Assay results as given in patent US20240092759A1, “Non-Covalent Inhibitors of the Main Protease of SARS-CoV-2 and Methods of Use” (YALE UNIVERSITY, priority 2021, published 2024).
Where two headings read alike, the source gives them in different places.

Assays:
[1] = target: recombinant SARS-Cov-2 M^pro (Severe acute respiratory syndrome coronavirus 2 (2019-nCoV) (SARS-CoV-2), UniProt P0DTD1); assay: biochemical
SARS-CoV-2 replicon = assay: microbe, parasite or virus in culture; format: cell-based; conditions: for IC50: Severe acute respiratory syndrome coronavirus 2, dose-response curves of FIGS. 6A-6B, read-out: IC50, replicon assay, compound alone
[2] = system: infectious SARS-CoV-2 (isolate USA-WA1/2020); assay: Antiviral assay, cytopathic effect by MTT in Vero E6 cells; format: cell-based; conditions: for EC50: Severe acute respiratory syndrome coronavirus 2, Vero C1008
Vero E6 cells = assay: Cellular cytotoxicity by MTT in Vero E6 cells; conditions: for CC50: read-out: CC50 Vero E6, absence of virus
[3] = system: normal human bronchial epithelial cells (NHBE); assay: Cellular cytotoxicity by MTT in normal human bronchial epithelial cells; conditions: read-out: CC50 NHBE; MTT
[4] = system: infectious SARS-CoV-2 (isolate USA-WA1/2020); assay: microbe, parasite or virus in culture; format: cell-based
[5] = combination with remdesivir, MacSynergy II

In the case of `N#Cc1ccccc1-c1cc(-c2cc(Cl)cc(Cl)c2)c(=O)n(-c2cccnc2)c1` [Compound 9, 2-(3-(3,5-Dichlorophenyl)-2-oxo-2H-[1,3′-bipyridin]-5-yl)benzonitrile], the IC50 ([1]; IC50) is reported as 4.2 µM, the IC50 ([1]; read-out: IC50 (μM), inhibition of SARS-Cov-2 M^pro, Table 4) is reported as 4.02 ± 1.36 µM and the IC50 (SARS-CoV-2 replicon) is reported as 93.8 nM. For the same compound, the “combination behavior” value (SARS-CoV-2 replicon; combination with EIDD-1931) was “synergistic effect”.
With `CCCOc1cc(Cl)cc(-c2cc(-c3ccccc3C#N)cn(-c3cccnc3)c2=O)c1` [Compound 13, 2-(3-(3-Chloro-5-propoxyphenyl)-2-oxo-2H-[1,3′-bipyridin]-5-yl)benzonitrile] the “factor of improvement in potency over 9” value ([1]; ratio of IC50 values) was “ca. 30”, the EC50 ([2]; Vero E6 cells, MOI 0.01, 72 h, NA = not active, read-out: EC50 MTT) was 2500 ± 700 nM and the EC50 ([2]; read-out: EC50, MTT assay) was 2500 nM. For the same compound, the “combination behavior” value (SARS-CoV-2 replicon; combination with remdesivir) was “statistically significant synergistic behavior”, the antagonism volume (SARS-CoV-2 replicon; [5]) was 0 μM^2% and the mean synergy volume (SARS-CoV-2 replicon; [5]) was 30.8 μM^2%. It also gave a CC50 (Vero E6 cells) of 22000 nM and a CC50 [3] of 20000 ± 2000 nM.
In the case of `O=c1[nH]cc(-c2cc(-c3cc(Cl)c(F)c(OCc4ccccc4Cl)c3)c(=O)n(-c3cccnc3)c2)c(=O)[nH]1` [Compound 44, 5-(3-(3-Chloro-5-((2-chlorobenzyl)oxy)-4-fluorophenyl)-2-oxo-2H-[1,3′-bipyridin]-5-yl)pyrimidine-2,4(1H,3H)-dione], the “antiviral activity in the MTT assay” value [2] is reported as “lacked antiviral activity”, the “antiviral activity in the viral plaque assay” value [4] is reported as “showed activity” and the EC50 ([4]; Severe acute respiratory syndrome coronavirus 2, Vero C1008, Vero E6 cells, MOI 0.01, read-out: EC50 Plaque) is reported as 840 nM. For the same compound, the “cytotoxicity” value (Vero E6 cells; Vero E6 and NHBE cells) was “greatest cytotoxicity”, the CC50 (Vero E6 cells) was 1150 ± 500 nM and the CC50 [3] was 3500 ± 1000 nM.
`O=c1nc(NO)ccn1[C@@H]1O[C@H](CO)C(O)[C@@H]1O` (stereo partly shown) [EIDD-1931, reference compound] showed an IC50 (SARS-CoV-2 replicon) of 2230 nM.
